{"source": "paper PMC4979471", "about": "(Cell Death Discovery, 2015)", "assay_in_all_cases": "Kinase selectivity, P33-radiolabeled assay", "assay_type_in_all_cases": "biochemical", "settings_in_all_cases": "10 μM ATP", "key": {"[1]": {"target": "T1, CDK7/cyclin H (Homo sapiens, UniProt P50613)", "T1 construct": "purchased Reaction Biology Corp", "T1 sequence (P50613 whole entry)": "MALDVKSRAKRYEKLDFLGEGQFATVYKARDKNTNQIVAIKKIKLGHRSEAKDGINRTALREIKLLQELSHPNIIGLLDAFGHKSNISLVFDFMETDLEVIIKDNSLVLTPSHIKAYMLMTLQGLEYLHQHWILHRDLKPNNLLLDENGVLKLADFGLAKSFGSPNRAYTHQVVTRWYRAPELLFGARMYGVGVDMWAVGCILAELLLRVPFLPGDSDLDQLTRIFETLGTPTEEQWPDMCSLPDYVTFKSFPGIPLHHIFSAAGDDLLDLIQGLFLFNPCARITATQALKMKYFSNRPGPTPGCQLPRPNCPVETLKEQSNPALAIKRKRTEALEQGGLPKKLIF", "T1 sequence (P51946 whole entry partner)": "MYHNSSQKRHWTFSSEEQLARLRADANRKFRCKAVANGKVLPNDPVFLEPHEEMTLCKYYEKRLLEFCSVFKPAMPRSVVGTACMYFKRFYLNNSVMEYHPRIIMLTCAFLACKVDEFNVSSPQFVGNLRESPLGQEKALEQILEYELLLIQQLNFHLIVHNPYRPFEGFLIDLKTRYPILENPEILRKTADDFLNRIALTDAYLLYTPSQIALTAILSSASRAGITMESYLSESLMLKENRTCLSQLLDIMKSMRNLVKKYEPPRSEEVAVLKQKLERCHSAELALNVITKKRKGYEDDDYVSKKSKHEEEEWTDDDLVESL", "T1 sequence (P51948 whole entry partner)": "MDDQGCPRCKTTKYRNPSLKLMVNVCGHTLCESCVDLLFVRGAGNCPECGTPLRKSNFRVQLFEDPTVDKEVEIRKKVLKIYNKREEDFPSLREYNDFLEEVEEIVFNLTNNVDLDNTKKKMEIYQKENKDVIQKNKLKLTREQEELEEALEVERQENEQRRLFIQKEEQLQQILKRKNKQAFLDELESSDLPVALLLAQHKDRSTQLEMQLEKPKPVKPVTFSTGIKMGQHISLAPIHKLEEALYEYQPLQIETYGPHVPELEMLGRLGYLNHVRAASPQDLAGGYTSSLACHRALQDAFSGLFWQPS", "procedure,_shortened": "(§1)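 Reactions contained 10 μM ATP and 10 μM test compound, each run in duplicate. Kinase activity is expressed as a percentage of DMSO-treated controls.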"}, "[2]": {"target": "T2, CDK9/cyclin K (Homo sapiens, UniProt P50750)", "T2 construct": "purchased Reaction Biology Corp", "T2 sequence (P50750 whole entry)": "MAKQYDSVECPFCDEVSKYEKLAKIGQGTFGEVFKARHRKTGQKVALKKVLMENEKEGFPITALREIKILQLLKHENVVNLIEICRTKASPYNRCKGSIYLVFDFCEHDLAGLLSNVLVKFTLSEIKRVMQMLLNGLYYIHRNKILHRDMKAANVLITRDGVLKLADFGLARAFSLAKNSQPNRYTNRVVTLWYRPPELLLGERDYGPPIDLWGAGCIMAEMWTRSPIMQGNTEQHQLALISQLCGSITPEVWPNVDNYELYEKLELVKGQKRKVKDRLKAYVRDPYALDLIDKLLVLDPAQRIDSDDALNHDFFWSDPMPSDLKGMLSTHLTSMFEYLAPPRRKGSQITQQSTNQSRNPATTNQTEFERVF", "T2 sequence (O75909 whole entry partner)": "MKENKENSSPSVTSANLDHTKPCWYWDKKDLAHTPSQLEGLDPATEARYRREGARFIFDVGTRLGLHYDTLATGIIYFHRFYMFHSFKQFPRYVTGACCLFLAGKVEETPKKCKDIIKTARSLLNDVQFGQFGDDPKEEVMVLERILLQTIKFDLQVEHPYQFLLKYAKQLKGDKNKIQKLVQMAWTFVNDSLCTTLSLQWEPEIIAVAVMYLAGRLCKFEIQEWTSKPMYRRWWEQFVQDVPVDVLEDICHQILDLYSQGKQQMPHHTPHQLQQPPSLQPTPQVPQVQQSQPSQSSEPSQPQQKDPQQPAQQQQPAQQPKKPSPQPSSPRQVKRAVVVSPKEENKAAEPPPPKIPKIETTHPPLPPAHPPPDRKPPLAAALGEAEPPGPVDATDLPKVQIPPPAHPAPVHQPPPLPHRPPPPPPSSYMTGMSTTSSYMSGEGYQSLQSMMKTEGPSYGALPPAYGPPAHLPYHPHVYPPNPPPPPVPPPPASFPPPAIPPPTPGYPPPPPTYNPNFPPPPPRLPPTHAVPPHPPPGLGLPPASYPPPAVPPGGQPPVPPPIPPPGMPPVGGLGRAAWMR", "procedure,_shortened": "as §1"}, "[3]": {"target": "T3, DAPK2 (Homo sapiens, UniProt Q9UIK4)", "T3 construct": "purchased Reaction Biology Corp", "T3 sequence (Q9UIK4 whole entry)": "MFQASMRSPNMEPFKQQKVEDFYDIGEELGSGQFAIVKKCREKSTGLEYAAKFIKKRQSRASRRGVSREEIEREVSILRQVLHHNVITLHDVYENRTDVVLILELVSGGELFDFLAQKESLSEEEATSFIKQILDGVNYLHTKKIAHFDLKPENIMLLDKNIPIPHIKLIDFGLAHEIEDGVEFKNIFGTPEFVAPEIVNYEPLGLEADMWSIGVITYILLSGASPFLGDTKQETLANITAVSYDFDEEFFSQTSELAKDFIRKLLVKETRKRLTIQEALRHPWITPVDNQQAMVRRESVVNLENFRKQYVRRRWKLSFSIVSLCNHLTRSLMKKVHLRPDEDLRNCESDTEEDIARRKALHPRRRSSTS", "procedure,_shortened": "as §1"}, "[4]": {"target": "T4, DCAMKL1 (Homo sapiens, UniProt O15075)", "T4 construct": "purchased Reaction Biology Corp", "T4 sequence (O15075 1-740)": "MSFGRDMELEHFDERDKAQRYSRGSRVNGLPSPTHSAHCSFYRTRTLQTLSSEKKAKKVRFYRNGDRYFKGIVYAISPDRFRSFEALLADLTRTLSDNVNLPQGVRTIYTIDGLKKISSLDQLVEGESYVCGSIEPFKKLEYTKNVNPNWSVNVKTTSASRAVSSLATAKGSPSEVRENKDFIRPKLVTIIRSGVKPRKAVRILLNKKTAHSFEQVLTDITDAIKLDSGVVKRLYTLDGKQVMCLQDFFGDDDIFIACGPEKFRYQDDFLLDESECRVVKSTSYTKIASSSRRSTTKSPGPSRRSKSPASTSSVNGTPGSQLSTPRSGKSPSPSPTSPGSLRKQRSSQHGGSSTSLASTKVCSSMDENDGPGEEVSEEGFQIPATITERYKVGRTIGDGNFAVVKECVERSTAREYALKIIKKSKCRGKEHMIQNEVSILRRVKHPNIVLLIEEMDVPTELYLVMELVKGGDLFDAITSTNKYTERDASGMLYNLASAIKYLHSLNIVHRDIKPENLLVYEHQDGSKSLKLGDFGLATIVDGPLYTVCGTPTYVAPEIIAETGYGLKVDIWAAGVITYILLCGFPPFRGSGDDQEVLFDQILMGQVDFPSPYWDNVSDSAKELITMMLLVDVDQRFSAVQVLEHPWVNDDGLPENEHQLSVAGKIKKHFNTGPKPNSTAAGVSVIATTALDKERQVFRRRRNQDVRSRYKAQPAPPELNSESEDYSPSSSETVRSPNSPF", "procedure,_shortened": "as §1"}, "[5]": {"target": "T5, FGR (Homo sapiens, UniProt P09769)", "T5 construct": "purchased Reaction Biology Corp", "T5 sequence (P09769 whole entry)": "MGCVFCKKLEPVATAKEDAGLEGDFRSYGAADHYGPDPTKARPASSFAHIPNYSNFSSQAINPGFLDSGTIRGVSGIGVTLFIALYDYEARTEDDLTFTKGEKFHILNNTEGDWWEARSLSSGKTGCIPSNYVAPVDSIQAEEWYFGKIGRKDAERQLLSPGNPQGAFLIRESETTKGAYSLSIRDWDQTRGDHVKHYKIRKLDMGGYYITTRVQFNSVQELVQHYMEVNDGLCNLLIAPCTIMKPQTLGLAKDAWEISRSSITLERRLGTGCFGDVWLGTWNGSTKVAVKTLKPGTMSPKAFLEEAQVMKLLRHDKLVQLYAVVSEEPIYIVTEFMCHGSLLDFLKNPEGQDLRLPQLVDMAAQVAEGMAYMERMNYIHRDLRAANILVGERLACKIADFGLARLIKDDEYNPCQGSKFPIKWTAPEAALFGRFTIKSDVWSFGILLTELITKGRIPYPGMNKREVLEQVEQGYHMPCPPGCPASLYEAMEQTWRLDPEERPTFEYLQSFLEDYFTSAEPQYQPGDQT", "procedure,_shortened": "as §1"}, "[6]": {"target": "T6, LCK (Homo sapiens, UniProt P06239)", "T6 construct": "purchased Reaction Biology Corp", "T6 sequence (P06239 whole entry)": "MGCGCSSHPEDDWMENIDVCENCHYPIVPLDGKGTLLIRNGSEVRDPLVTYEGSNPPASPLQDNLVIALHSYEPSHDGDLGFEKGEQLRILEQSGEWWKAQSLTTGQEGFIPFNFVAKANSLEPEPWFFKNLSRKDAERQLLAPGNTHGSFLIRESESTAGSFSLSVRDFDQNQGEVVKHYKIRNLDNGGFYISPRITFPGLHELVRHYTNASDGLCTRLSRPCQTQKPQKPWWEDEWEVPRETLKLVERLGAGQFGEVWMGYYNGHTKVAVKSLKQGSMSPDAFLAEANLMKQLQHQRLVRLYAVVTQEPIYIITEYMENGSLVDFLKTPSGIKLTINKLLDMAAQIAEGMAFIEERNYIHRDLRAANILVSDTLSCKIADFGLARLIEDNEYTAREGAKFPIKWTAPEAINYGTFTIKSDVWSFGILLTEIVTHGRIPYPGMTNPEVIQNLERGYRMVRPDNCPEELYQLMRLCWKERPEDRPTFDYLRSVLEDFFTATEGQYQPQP", "procedure,_shortened": "as §1"}, "[7]": {"target": "T7, MLK1/MAP3K9 (Homo sapiens, UniProt P80192)", "T7 construct": "purchased Reaction Biology Corp", "procedure,_shortened": "as §1"}, "[8]": {"target": "T8, MNK1 (Homo sapiens, UniProt Q9BUB5)", "T8 construct": "purchased Reaction Biology Corp", "T8 sequence (Q9BUB5 whole entry)": "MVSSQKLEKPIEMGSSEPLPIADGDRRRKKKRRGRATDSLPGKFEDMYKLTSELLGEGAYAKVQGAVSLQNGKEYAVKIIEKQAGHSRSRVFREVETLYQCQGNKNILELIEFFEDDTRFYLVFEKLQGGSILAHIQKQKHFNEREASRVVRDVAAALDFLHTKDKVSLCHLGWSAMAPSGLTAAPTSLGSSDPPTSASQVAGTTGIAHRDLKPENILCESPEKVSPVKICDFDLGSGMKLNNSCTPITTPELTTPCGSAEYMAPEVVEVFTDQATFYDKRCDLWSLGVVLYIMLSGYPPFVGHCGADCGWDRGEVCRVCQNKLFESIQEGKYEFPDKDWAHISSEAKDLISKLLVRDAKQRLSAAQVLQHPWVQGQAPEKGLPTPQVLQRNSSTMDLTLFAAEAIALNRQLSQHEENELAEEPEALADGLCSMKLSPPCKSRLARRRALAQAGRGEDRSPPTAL", "procedure,_shortened": "as §1"}, "[9]": {"target": "T9, MYLK3 (Homo sapiens, UniProt Q32MK0)", "T9 construct": "purchased Reaction Biology Corp", "T9 sequence (Q32MK0 1-819)": "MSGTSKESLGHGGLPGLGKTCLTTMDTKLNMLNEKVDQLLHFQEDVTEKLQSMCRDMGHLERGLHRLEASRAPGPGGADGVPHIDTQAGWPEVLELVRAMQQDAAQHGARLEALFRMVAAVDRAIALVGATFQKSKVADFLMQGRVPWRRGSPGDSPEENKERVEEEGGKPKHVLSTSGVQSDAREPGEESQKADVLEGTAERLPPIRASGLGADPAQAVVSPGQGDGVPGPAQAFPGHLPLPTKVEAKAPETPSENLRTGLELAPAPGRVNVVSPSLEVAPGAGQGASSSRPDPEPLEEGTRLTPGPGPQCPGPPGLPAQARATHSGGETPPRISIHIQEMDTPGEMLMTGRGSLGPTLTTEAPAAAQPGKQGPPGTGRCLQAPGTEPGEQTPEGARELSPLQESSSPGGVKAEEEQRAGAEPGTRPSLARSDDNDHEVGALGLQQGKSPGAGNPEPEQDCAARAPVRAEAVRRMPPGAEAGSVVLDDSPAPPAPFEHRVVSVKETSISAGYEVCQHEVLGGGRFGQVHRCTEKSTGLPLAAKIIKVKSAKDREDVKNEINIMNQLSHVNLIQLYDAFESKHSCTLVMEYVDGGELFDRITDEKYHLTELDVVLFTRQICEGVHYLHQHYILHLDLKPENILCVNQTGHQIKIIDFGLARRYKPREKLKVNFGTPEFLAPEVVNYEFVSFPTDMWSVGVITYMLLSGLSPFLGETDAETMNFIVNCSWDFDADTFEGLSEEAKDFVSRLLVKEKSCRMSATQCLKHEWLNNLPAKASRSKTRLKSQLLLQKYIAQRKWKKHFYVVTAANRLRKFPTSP", "procedure,_shortened": "as §1"}, "[10]": {"target": "T10, SRPK1 (Homo sapiens, UniProt Q96SB4)", "T10 construct": "purchased Reaction Biology Corp", "T10 sequence (Q96SB4 whole entry)": "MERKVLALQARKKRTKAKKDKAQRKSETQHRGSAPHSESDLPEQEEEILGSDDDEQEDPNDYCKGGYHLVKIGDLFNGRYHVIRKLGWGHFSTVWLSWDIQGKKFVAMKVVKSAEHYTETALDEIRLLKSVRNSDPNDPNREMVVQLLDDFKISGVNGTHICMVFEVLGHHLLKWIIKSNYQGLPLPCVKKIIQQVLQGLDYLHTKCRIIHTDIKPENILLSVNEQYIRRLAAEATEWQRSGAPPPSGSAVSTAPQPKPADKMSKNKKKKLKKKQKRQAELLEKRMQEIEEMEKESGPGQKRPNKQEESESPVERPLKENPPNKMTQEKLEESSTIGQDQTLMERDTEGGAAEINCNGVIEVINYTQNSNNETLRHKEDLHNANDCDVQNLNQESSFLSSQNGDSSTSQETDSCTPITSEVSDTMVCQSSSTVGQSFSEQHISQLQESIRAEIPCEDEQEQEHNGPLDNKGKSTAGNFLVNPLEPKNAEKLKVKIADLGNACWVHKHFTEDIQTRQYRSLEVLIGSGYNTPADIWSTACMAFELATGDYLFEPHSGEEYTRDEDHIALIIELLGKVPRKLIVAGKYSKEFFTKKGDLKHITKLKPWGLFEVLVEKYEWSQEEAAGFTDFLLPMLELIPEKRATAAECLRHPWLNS", "procedure,_shortened": "as §1"}, "[11]": {"target": "T11, TSSK3/STK22C (Homo sapiens, UniProt Q96PN8)", "T11 construct": "purchased Reaction Biology Corp", "T11 sequence (Q96PN8 1-268)": "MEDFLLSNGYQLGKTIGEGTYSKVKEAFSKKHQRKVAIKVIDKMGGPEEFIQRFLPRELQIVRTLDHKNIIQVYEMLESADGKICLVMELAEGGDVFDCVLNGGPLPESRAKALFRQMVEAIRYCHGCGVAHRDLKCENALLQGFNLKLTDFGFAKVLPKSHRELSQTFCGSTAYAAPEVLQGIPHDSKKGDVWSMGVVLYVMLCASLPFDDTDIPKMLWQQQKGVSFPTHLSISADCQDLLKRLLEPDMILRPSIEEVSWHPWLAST", "procedure,_shortened": "as §1"}, "[12]": {"settings": "read-out: % Enzyme Activity (relative to DMSO controls) AVG"}, "[13]": {"settings": "read-out: % Enzyme Activity (relative to DMSO controls) Data 1"}, "[14]": {"settings": "read-out: % Enzyme Activity (relative to DMSO controls) Data 2"}}, "note": "Where two headings read alike, the source gives them in different places.", "data": [{"smiles": "CC(C)(C)C(=O)N1N=CC[C@H]1c1ccccc1", "note": "[GSK′963]", "values": [{"measurement": "remaining activity at 10 µM", "setting": "[1]; [12]", "result": 96.7, "unit": "%"}, {"measurement": "remaining activity at 10 µM", "setting": "[1]; [13]", "result": 98.8, "unit": "%"}, {"measurement": "remaining activity at 10 µM", "setting": "[1]; [14]", "result": 94.6, "unit": "%"}, {"measurement": "remaining activity at 10 µM", "setting": "[2]; [12]", "result": 114, "unit": "%"}, {"measurement": "remaining activity at 10 µM", "setting": "[2]; [13]", "result": 112, "unit": "%"}, {"measurement": "remaining activity at 10 µM", "setting": "[2]; [14]", "result": 116, "unit": "%"}, {"measurement": "remaining activity at 10 µM", "setting": "[3]; [12]", "result": 105, "unit": "%"}, {"measurement": "remaining activity at 10 µM", "setting": "[3]; [13]", "result": 104, "unit": "%"}, {"measurement": "remaining activity at 10 µM", "setting": "[3]; [14]", "result": 105, "unit": "%"}, {"measurement": "remaining activity at 10 µM", "setting": "[4]; [12]", "result": 92.5, "unit": "%"}, {"measurement": "remaining activity at 10 µM", "setting": "[4]; [13]", "result": 96.2, "unit": "%"}, {"measurement": "remaining activity at 10 µM", "setting": "[4]; [14]", "result": 88.8, "unit": "%"}, {"measurement": "remaining activity at 10 µM", "setting": "[5]; [12]", "result": 107, "unit": "%"}, {"measurement": "remaining activity at 10 µM", "setting": "[5]; [13]", "result": 106, "unit": "%"}, {"measurement": "remaining activity at 10 µM", "setting": "[5]; [14]", "result": 108, "unit": "%"}, {"measurement": "remaining activity at 10 µM", "setting": "[6]; [12]", "result": 96.4, "unit": "%"}, {"measurement": "remaining activity at 10 µM", "setting": "[6]; [13]", "result": 96.1, "unit": "%"}, {"measurement": "remaining activity at 10 µM", "setting": "[6]; [14]", "result": 96.7, "unit": "%"}, {"measurement": "remaining activity at 10 µM", "setting": "[7]; [12]", "result": 110, "unit": "%"}, {"measurement": "remaining activity at 10 µM", "setting": "[7]; [13]", "result": 108, "unit": "%"}, {"measurement": "remaining activity at 10 µM", "setting": "[7]; [14]", "result": 112, "unit": "%"}, {"measurement": "remaining activity at 10 µM", "setting": "[8]; [12]", "result": 117, "unit": "%"}, {"measurement": "remaining activity at 10 µM", "setting": "[8]; [13]", "result": 111, "unit": "%"}, {"measurement": "remaining activity at 10 µM", "setting": "[8]; [14]", "result": 122, "unit": "%"}, {"measurement": "remaining activity at 10 µM", "setting": "[9]; [12]", "result": 102, "unit": "%"}, {"measurement": "remaining activity at 10 µM", "setting": "[9]; [13]", "result": 99.7, "unit": "%"}, {"measurement": "remaining activity at 10 µM", "setting": "[9]; [14]", "result": 105, "unit": "%"}, {"measurement": "remaining activity at 10 µM", "setting": "[10]; [12]", "result": 97.7, "unit": "%"}, {"measurement": "remaining activity at 10 µM", "setting": "[10]; [13]", "result": 93.2, "unit": "%"}, {"measurement": "remaining activity at 10 µM", "setting": "[10]; [14]", "result": 102, "unit": "%"}, {"measurement": "remaining activity at 10 µM", "setting": "[11]; [12]", "result": 131, "unit": "%"}, {"measurement": "remaining activity at 10 µM", "setting": "[11]; [13]", "result": 129, "unit": "%"}, {"measurement": "remaining activity at 10 µM", "setting": "[11]; [14]", "result": 133, "unit": "%"}]}]}
